Experimental data as given in patent US6750228B1, “Aromatic sulfone hydroxamic acid metalloprotease inhibitor” (priority 1997, dated 2004).
Counter-ions that a name gives are not always drawn. Like-named read-outs stand apart in the source and are kept apart here.

How the values were obtained:
Experiment in all cases: biochemical
MMP-13 = molecular target: T1, MMP-13 (Homo sapiens, UniProt P45452); details: recombinant human MMP-13, MCA peptide substrate 4 μM, pH 7.5, room temperature
T1 construct: made in house; host or cells: baculovirus / insect cells
Outline: (§1)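 Assay buffer 100 mM Tris-HCl, 100 mM NaCl, 10 mM CaCl2, pH 7.5. Activated MMP + inhibitor, 5 min RT; then methoxycoumarin peptide substrate, 4 μM final. Readout fluorescence; IC50 calculated.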

MMP-1 = molecular target: T2, MMP-1 (Homo sapiens, UniProt P03956)
T2 construct: made in house; host or cells: transfected HT-1080 cells (provided by Dr. Harold Welgus, Washington University)
T2 sequence (P03956 100-469): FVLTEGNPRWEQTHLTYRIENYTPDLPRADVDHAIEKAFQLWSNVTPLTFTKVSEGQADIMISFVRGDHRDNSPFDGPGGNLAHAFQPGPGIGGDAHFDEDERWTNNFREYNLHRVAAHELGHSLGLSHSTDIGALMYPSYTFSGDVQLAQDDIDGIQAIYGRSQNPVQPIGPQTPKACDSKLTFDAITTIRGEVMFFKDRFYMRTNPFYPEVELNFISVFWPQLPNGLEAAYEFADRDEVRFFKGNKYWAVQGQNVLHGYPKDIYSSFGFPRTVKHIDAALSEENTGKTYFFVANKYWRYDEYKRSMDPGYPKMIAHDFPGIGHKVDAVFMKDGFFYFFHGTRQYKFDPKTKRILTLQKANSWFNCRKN
Outline: as §1

MMP-2 = molecular target: T3, MMP-2 (Homo sapiens, UniProt P08253)
T3 construct: made in house; provided by Dr. Gregory Goldberg, Washington University
T3 sequence (P08253 110-660): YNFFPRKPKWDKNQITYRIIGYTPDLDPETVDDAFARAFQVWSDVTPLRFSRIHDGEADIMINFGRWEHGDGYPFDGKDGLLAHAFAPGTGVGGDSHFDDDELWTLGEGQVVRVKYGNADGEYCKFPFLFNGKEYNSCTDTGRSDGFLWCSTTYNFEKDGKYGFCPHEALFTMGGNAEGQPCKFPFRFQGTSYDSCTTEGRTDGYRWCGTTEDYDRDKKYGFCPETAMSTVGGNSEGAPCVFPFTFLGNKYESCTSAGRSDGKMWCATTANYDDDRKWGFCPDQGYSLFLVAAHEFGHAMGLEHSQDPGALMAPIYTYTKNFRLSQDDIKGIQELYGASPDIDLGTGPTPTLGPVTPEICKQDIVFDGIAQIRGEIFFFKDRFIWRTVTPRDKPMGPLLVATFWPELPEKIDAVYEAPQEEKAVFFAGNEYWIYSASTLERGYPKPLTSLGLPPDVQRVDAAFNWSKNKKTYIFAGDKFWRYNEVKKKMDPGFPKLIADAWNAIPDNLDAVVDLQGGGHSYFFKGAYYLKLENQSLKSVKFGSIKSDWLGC
Outline: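 APMA- or trypsin-activated human MMPs (MMP-1 from transfected HT-1080 cells, MMP-2 from transfected cells) preincubated with inhibitor in 1% DMSO at room temperature, then 4 μM MCA-Pro-Leu-Gly-Leu-Dpa-Ala-Arg-NH2 added in Tris/NaCl/CaCl2 buffer pH 7.5. IC50 from fluorescence reduction versus inhibitor concentration.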

[1] = recombinant human MMP-1, MCA peptide substrate 4 μM, pH 7.5, room temperature, read-out: MMP-1 IC50
[2] = recombinant human MMP-2, MCA peptide substrate 4 μM, pH 7.5, room temperature, read-out: MMP-2 IC50

| SMILES | IC50 (MMP-13; read-out: MMP-13 IC50) [nM] | IC50 (MMP-1; [1]) [µM] | IC50 (MMP-2; [2]) [nM] | IC50 (MMP-1) [µM] | IC50 (MMP-2; MMP-2 IC50 (nM)) [nM] | IC50 (MMP-13; MMP-13 IC50 (nM)) [nM] |
| --- | --- | --- | --- | --- | --- | --- |
| CC1CCCC(S(=O)(=O)C2CCN(c3ccc(S(=O)(=O)C4(C(=O)NO)CCOCC4)cc3)CC2)C1 (stereo not drawn) [Example 822] | 10 | > 10 | 210 |  |  |  |
| O=C(NO)C1(S(=O)(=O)c2ccc(N3CCC(OCc4ccc(F)cc4C(F)(F)F)CC3)cc2)CCN(C2CC2)CC1 [Example 414] | 50.5 | > 10 | 1500 |  |  |  |
| CCOC1CCCN(c2ccc(S(=O)(=O)C3(C(=O)NO)CCOCC3)cc2)C1 (stereo not drawn) [Example 562] | 1200 | > 10 | 6300 |  |  |  |
| O=C(NO)C1(S(=O)(=O)c2ccc(N3CCC4CCCCC4C3)cc2)CCOCC1 (stereo not drawn) [Example 692] | 10 | > 10 | 22.7 |  |  |  |
| O=C(NO)C1(S(=O)(=O)c2ccc(N3CCC(Oc4ccc([N+](=O)[O-])cc4C(F)(F)F)CC3)cc2)CCOCC1 [Example 481] | 50 | > 10 | 1400 |  |  |  |
| CC(C)N1CCC(C(=O)NO)(S(=O)(=O)c2ccc(N3CCC(SCc4ccc(OC(F)(F)F)cc4)CC3)cc2)CC1 [Example 462] | 2.9 | > 10 | 80 |  |  |  |
| COc1ccc(S(=O)(=O)N2CCCN(c3ccc(S(=O)(=O)C4(C(=O)NO)CCOCC4)cc3)CC2)cc1 [Example 698] | 16.9 | > 10 | 700 |  |  |  |
| N#Cc1ccc(COC2CCN(c3ccc(S(=O)(=O)C4(C(=O)NO)CCOCC4)cc3)CC2)cc1 [Example 180] | 1.1 | > 10 | 41.8 |  |  |  |
| O=C(c1ccccc1)N1CCC(C(=O)NO)(S(=O)(=O)c2ccc(Oc3ccc(OC(F)(F)F)cc3)cc2)CC1 [Example 91] | 0.3 | > 10 | < 0.1 |  |  |  |
| O=C(NO)C1(S(=O)(=O)c2ccc(N3CCCN(S(=O)(=O)c4ccccc4)CC3)cc2)CCOCC1 [Example 650] | 14.7 | > 10 | 1200 |  |  |  |
| CN1CCCN(c2ccc(S(=O)(=O)C3(C(=O)NO)CCOCC3)cc2)CC1 [Example 213] | 1400 | > 10 | 2700 |  |  |  |
| COc1ccc(C(=O)C2CCN(c3ccc(S(=O)(=O)C4(C(=O)NO)CCOCC4)cc3)CC2)cc1 [Example 80] | 4.1 | > 10 | 562 |  |  |  |
| CCN(CC)CC(=O)N1CCC(C(=O)NO)(S(=O)(=O)c2ccc(N3CCC(C(=O)N4CC(C)CC(C)C4)CC3)cc2)CC1 (stereo not drawn) [Example 295] | 50 | > 10 | > 10000 |  |  |  |
| O=C(NO)C1(S(=O)(=O)c2ccc(N3CCC(OCc4cccc(OC(F)(F)F)c4)CC3)cc2)CCOCC1 [Example 173] | 6.7 | 3.4 | 330 |  |  |  |
| CC(C)c1ccc(C(=O)C2CCN(c3ccc(S(=O)(=O)C4(C(=O)NO)CCOCC4)cc3)CC2)cc1 [Example 788] | 3 | > 10 | 445 |  |  |  |
| CC1CC(C)CN(C(=O)C2CCN(c3ccc(S(=O)(=O)C4(C(=O)NO)CCN(C(=O)CN5CCN(CCOCCO)CC5)CC4)cc3)CC2)C1 (stereo not drawn) [Example 299] | 30.6 | > 10 | 9000 |  |  |  |
| COc1ccccc1COC1CCC(Oc2ccc(S(=O)(=O)C3(C(=O)NO)CCOCC3)cc2)C1 (stereo not drawn) [Example 741] | 50 | > 10 | 125 |  |  |  |
| CC1CC(C)CN(C(=O)C2CCN(c3ccc(S(=O)(=O)C4(C(=O)NO)CCN(C(=O)CN5CCOCC5)CC4)cc3)CC2)C1 (stereo not drawn) [Example 283] | 13.8 | > 10 | > 10000 |  |  |  |
| O=C(Cc1ccccc1)C1CCN(c2ccc(S(=O)(=O)C3(C(=O)NO)CCOCC3)cc2)CC1 [Example 838] | 3 | > 10 | 70 |  |  |  |
| O=C(NO)C1(S(=O)(=O)c2ccc(OC3CCCC(OCc4ccccc4Cl)C3)cc2)CCOCC1 (stereo not drawn) [Example 666] | 48.4 | > 10 | 330 |  |  |  |

| SMILES | IC50 (MMP-13; read-out: MMP-13 IC50) [nM] | IC50 (MMP-1; [1]) [µM] | IC50 (MMP-2; [2]) [nM] | IC50 (MMP-1) [µM] | IC50 (MMP-2; MMP-2 IC50 (nM)) [nM] | IC50 (MMP-13; MMP-13 IC50 (nM)) [nM] |
| --- | --- | --- | --- | --- | --- | --- |
| O=C(c1ccc2c(c1)OCO2)C1CCN(c2ccc(S(=O)(=O)C3(C(=O)NO)CCOCC3)cc2)CC1 [Example 796] | 5.7 | > 10 | 130 |  |  |  |
| CCCCOc1ccc(NC(=O)OC2CCN(c3ccc(S(=O)(=O)C4(C(=O)NO)CCOCC4)cc3)CC2)cc1 [Example 518] | 11.4 | > 10 | 350 |  |  |  |
| O=C(NO)C1(S(=O)(=O)c2ccc(N3CC[C@@H](OCc4cccc(C(F)(F)F)c4)C3)cc2)CCOCC1 [Example 532] | 10 | > 10 | 150 |  |  |  |
| O=C(NO)C1(S(=O)(=O)c2ccc(N3CCC(OCc4ccccn4)CC3)cc2)CCOCC1 [Example 578] | 160 | > 10 | 2000 |  |  |  |
| COc1cccc(COC2CCC(Oc3ccc(S(=O)(=O)C4(C(=O)NO)CCOCC4)cc3)C2)c1 (stereo not drawn) [Example 694] | 3.1 | > 10 | 23.2 |  |  |  |
| O=C(NO)C1(S(=O)(=O)c2ccc(Oc3ccc(OC(F)(F)F)cc3)cc2)CCN(CCCN2CCOCC2)CC1 [Example 264, N-Hydroxy-1-[3-(4-morpholinyl)propyl]-4-[[4-[4-(trifluoromethoxy)phenoxy]phenyl]sulfonyl]-4-piperidinecarboxamide Dihydrochloride] | 0.2 | 4.5 | < 0.1 |  |  |  |
| O=C(CCCCNCc1cccnc1)N1CCC(C(=O)NO)(S(=O)(=O)c2ccc(Oc3ccc(C(F)(F)F)cc3)cc2)CC1 [Example 333] | 0.8 | > 10 | 0.2 |  |  |  |
| O=C(NO)C1(S(=O)(=O)c2ccc([C@H]3CC[C@@H](c4ccccc4)CC3)cc2)CCOCC1 [Example 781] | 800 | > 10 | 5100 |  |  |  |
| Cc1ccc(OC2CCN(c3ccc(S(=O)(=O)C4(C(=O)NO)CCOCC4)cc3)CC2)cc1 [Example 619] | 4.3 | > 10 | 5.7 |  |  |  |
| COc1ccc(C(=O)N2CCN(c3ccc(S(=O)(=O)C4(C(=O)NO)CCOCC4)cc3)CC2)cc1 [Example 594] | 570 |  |  | > 10 | 650 |  |
| O=C(NO)C1(S(=O)(=O)c2ccc(N3CCC(c4ccc(Cl)cc4)CC3)cc2)CCOCC1 [Example 541] |  | > 10 | 2 |  |  | 0.7 |
| O=C(c1ncc[nH]1)N1CCC(C(=O)NO)(S(=O)(=O)c2ccc(Oc3ccc(OC(F)(F)F)cc3)cc2)CC1 [Example 379] | 0.3 | > 10 | 0.1 |  |  |  |
| O=C(NO)C1(S(=O)(=O)c2ccc([C@H]3CC[C@H](c4ccccc4)CC3)cc2)CCOCC1 [Example 782] | 21.1 | > 10 | 100 |  |  |  |
| O=C(NO)C1(S(=O)(=O)c2ccc(N3CCC(Oc4cc(F)c([N+](=O)[O-])c(F)c4)CC3)cc2)CCOCC1 [Example 549] | 55.3 | > 10 | 2900 |  |  |  |
| O=C(NO)C1(S(=O)(=O)c2ccc(N3CCC(OCc4ccccc4-c4ccccc4)CC3)cc2)CCOCC1 [Example 181] | 190 | > 10 | 2300 |  |  |  |
| O=C(NO)C1(S(=O)(=O)c2ccc(N3CCC(OCc4ccc(COCC(F)(F)C(F)(F)C(F)(F)F)cc4)CC3)cc2)CCOCC1 [Example 609] | 30.6 | > 10 | 2800 |  |  |  |
| CCCCCOc1ccc(COC2CCN(c3ccc(S(=O)(=O)C4(C(=O)NO)CCOCC4)cc3)CC2)cc1 [Example 477] | 11.3 | > 10 | 160 |  |  |  |
| CCC(CC)COCc1ccc(COC2CCN(c3ccc(S(=O)(=O)C4(C(=O)NO)CCOCC4)cc3)CC2)cc1 [Example 602] | 70 | > 10 | 3000 |  |  |  |
| CCOc1ccccc1C1CCN(c2ccc(S(=O)(=O)C3(C(=O)NO)CCOCC3)cc2)CC1 [Example 544] | 35 | > 10 |  |  | 3100 |  |
